# Source: patent US20230173089A1, “Q-ER PEPTIDE” (Biotempt B.V., priority 2019, published 2023)
# Like-named read-outs stand apart in the source and are kept apart here.
# Tests used:
# [1] = test system: allogenic kidney transplantation recipients; conditions: 50 mg/kg twice daily i.p.; cited from earlier work
# [2] = test system: high-dose lipopolysaccharide induced inflammation; conditions: previous study; cited from earlier work
# [3] = test system: male C57B1/6N mice with renal ischemia/reperfusion injury; conditions: cited from earlier work
# [4] = test system: healthy volunteers given E. coli endotoxin; conditions: cited from earlier work
# [5] = test system: Wistar rats with hemorrhagic shock; experiment: hemorrhagic shock and resuscitation in rats (Example 15, SIRS); type: in vivo, rat; conditions: single injection 30 minutes after induction of hemorrhagic shock
# Protocol: Severe hemorrhagic shock followed by resuscitation induces a massive inflammatory response, which may culminate into systemic inflammatory response syndrome, multiple organ dysfunction syndrome and finally death. Treatments that effectively prevent this inflammation are limited so far. […] Considering this powerful anti-inflammatory effect, it was investigated whether administration of 0.5 ml i.p. of synthetic heptapeptide SEQ ID NO:5 (AQGVAPG), SEQ ID NO:6 (LQGVAPG), SEQ ID NO:7 (AQGVLPG), SEQ ID NO:8 (LQGVLPG), dissolved in 0.9% NaCl at a concentration of 25 mg/ml, or vehicle (0.9% NaCl), respectively, during the SIRS-phase of hemorrhagic shock, is able to attenuate the inflammatory response associated with this condition.
# Hemorrhagic shock is induced in groups of 6 rats for 60 minutes by blood withdrawal until a mean arterial pressure of 40 mmHg is reached. Thirty minutes after induction of hemorrhagic shock, rats received a single injection with one of synthetic heptapeptide SEQ ID NO:5 (AQGVAPG), SEQ ID NO:6 (LQGVAPG), SEQ ID NO:7 (AQGVLPG), SEQ ID NO:8 (LQGVLPG), or 0.9% NaCl solution, as control. Treatment with synthetic heptapeptide SEQ ID NO:5 (AQGVAPG), SEQ ID NO:6 (LQGVAPG), SEQ ID NO:7 (AQGVLPG), SEQ ID NO:8 (LQGVLPG) prevents systemic release of TNF-α and IL-6 and is associated with reduced TNF-α, IL-6 and E-selectin mRNA transcript levels in the liver, with reduced neutrophil infiltration into the liver and is associated with reduced liver damage.
# Animals. Adult male specific pathogen-free Wistar rats weighing 350-400 g are used. Rats are housed under barrier conditions at 25° C. with a twelve-hour light/dark cycle, and are allowed food and water ad libitum. The experimental protocol adheres to the rules laid down in national law that serves the implementation of “Guidelines on the protection of experimental animals” by the Council of Europe (1986), Directive 86/609/EC. hCG-related synthetic oligopeptides. Rats are food deprived overnight before the start of the experiment, but are allowed water ad libitum. Rats are anesthetized using a mixture of N2 O/O2 /isoflurane (Pharmachemie B.V., Haarlem, The Netherlands). Body temperature is continuously maintained at 37.5° C. by placing the rats on a thermo controlled “half-pipe” (UNO, Rotterdam, The Netherlands). Endotracheal intubation is performed, and rats are ventilated at 60 breaths per minute with a mixture of N2 O/O2 /isoflurane. Polyethylene tubes (PE-50, Becton Dickinson; St. Michielsgestel, The Netherlands) are flushed with heparin and placed via the right carotid artery in the aorta and in the right internal jugular vein. A 5 cm midline laparotomy is performed and a supra pubic catheter is inserted to monitor urine production. Hemorrhagic shock is induced by blood withdrawal, reducing the circulating blood volume until a mean arterial pressure (MAP) of 40 mmHg is reached. This level of hypotension is maintained for 60 minutes. Thirty minutes after the induction of hemorrhagic shock, rats received a single intravenous (IV) bolus injection of heptapeptide solution or vehicle. Sixty minutes after induction of hemorrhagic shock, rats are resuscitated by four times their shed blood volume over a period of 30 minutes to normalize the MAP, and monitored for another 120 minutes after which they are sacrificed. The rats receive no heparin before or during the experiment. Sham animals are subjected to the same surgical procedure as the hemorrhagic shock animals, but without blood withdrawal and administration of heptapeptide.
# [6] = test system: Streptozotocin-induced diabetic rats; experiment: renal function and urinary protein leakage in streptozotocin-induced diabetic rats; type: in vivo, rat; conditions: 140 minutes i.v. infusion, 5 nmol x min(-1) x kg(-1) body wt
# Protocol: Acute effects of 140 minutes i.v. infusion of heptapeptide with SEQ ID NO:8 (LQGVLPG; 5 nmol x min(-1) x kg(-1) body wt) on renal function and urinary protein leakage are studied in anesthetized diabetic male rats two weeks after streptozotocin injection without insulin treatment. Streptozotocin-induced diabetic rats are studied with (N = 12) and without heptapeptide (N = 11) treatment. The two groups show a similarly elevated blood glucose concentration during the study. Age-matched normal rats serve as controls (N = 5). Glomerular filtration rate (GFR) is measured by inulin clearance in the basal state and during a 60-minute glycine infusion (0.22 mmol x min(-1) x kg(-1) body wt)-resembling a protein load challenge-to test the renal functional reserve in all three groups.
# In the basal state, the non-heptapeptide-treated diabetic rats display increased GFR and increased total protein leakage when compared with normal rats. Whereas normal rats respond to glycine infusion with an increase in GFR, no increase occurs in diabetic rats not treated with heptapeptide. In diabetic rats given heptapeptide, this reduces the initial glomerular hyperfiltration prior to glycine infusion. […] Thus, short-term infusion of heptapeptide has beneficial effects on protein leakage and hyperfiltration and improves the renal functional reserve in rats.
# [7] = test system: non-obese diabetic (NOD) mouse; experiment: type 1 diabetes development in NOD mice; type: in vivo; conditions: 250 µg i.p. three times per week, female NOD mice from 14 weeks, max five weeks
# Description: The non-obese diabetic (NOD) mouse spontaneously develops type 1 diabetes (T1D) and has served as a model for understanding the genetic and immunological basis, and treatment, of T1D. NOD mice are used in these studies. Most diabetic NOD mice suffer from insulin deficiency diabetes, with the underlying cause of the pancreatic beta-cell loss or destruction most likely a result of an inflammatory process in the micro-vasculature surrounding endocrine beta-cell tissues and genetically accelerated autoimmunity is suspected. Diabetes is assessed by measurement of the venous blood glucose level using an Abbott Medisense Precision glucometer. Mice are considered diabetic after two consecutive glucose measurements ≥11 mmol/l (200 mg/dl). Onset of diabetes is dated from the first consecutive reading of ≥11 mmol/l. In vivo treatment: groups of 14 weeks-old female NOD mice (n=12 per group) are treated with synthetic peptide SEQ ID NO:5 (AQGVAPG), SEQ ID NO:6 (LQGVAPG), SEQ ID NO:7 (AQGVLPG), SEQ ID NO:8 (LQGVLPG) or vehicle (PBS), respectively. Treatment is done by injecting 250 µg peptide diluted in PBS three times per week intraperitoneally (i.p.). Control mice are treated with PBS only. The treatment is discontinued when all PBS treated NOD mice in the experiment have developed diabetes. This is generally at the age of 19 weeks. The peptide and PBS treatments are done for a maximum of five weeks. In instances of hyperglycaemia of ≥20 mmol/l the mice are killed to avoid prolonged discomfort. The remainder mice are kept alive up to the age of 35 weeks without any further treatment.
# [8] = test system: murine polymicrobial sepsis model; conditions: cited from earlier work
# [9] = test system: colonic inflammation induced by dextran sulfate sodium (DSS); conditions: Gln supplementation; cited from earlier work
# [10] = test system: mTOR; conditions: cited from earlier work
compound,measurement,setting,value
"AQGV (Immunomodulatory peptide) [SEQ ID NO:2, synthetic linear glutamine-containing tetrapeptide derived from beta-human chorionic gonadotropin]",renal function and allograft survival,[1],improved
same,inflammatory response and mortality following high-dose lipopolysaccharide,[2],inhibit
same,survival after IRI,"[3]; 20-50 mg/kg twice daily i.p. for four days, started 24 hours after IRI",markedly improved
same,CTGF up-regulation (marker of post-ischemic fibrosis) in renal tissue,[3]; four weeks after IRI,significantly less
same,tubular epithelial cell proliferation,"[3]; mouse, in vivo",significantly enhanced
same,acute tubular injury,[3]; two days after IRI,diminished
same,"endotoxin induced increase in plasma levels of IL-6, IL-8, IL-1RA, MCP-1, MIP-1α, MIP-1β and VCAM-1",[4]; 180 mg/kg (highest dose),significant attenuation
same,fever and flu-like symptoms,[4]; highest dose (180 mg/kg),reduced
same,"endotoxin induced increase in plasma levels of IL-6, IL-8, IL-1RA, MCP-1, MIP-1α, MIP-1β and VCAM-1","[4]; lower doses (30, 90 mg/kg)",not with the lower doses tested
LQGVLPG (Immunomodulatory peptide) [SEQ ID NO:8],"TNF-α, IL-6 and E-selectin mRNA transcript levels in the liver",[5],reduced
same,liver damage,[5],reduced
same,neutrophil infiltration into the liver,[5],reduced
same,systemic release of TNF-α and IL-6,[5],prevents
same,initial glomerular hyperfiltration (GFR) prior to glycine infusion,[6],reduces
same,renal functional reserve (GFR response to glycine infusion),[6],restores normal
same,total protein leakage compared with rats not given heptapeptide,[6],lower
same,beta-cell failure with diabetes development (occurrence of diabetes after the age of 17 weeks),[7],significantly reduces
"LQGV (Immunomodulatory peptide) [SEQ ID NO:1, synthetic linear glutamine-containing tetrapeptide derived from beta-human chorionic gonadotropin]",survival during the first 5 days after moderate cecal ligation and puncture,"[8]; 5 mg/kg bodyweight, control 20%",50%
same,survival in severe cecal ligation and puncture model,"[8]; 5 mg/kg combined with fluid resuscitation and antibiotics, fluid resuscitation and antibiotics alone 30%",70%
same,"cytokine and E-selectin levels in peritoneal lavage fluid, lungs and plasma","[8]; moderate cecal ligation and puncture, 5 mg/kg",reduced
same,pulmonary nuclear factor-κB activation and pulmonary damage,"[8]; mouse, in vivo",reduced
same,inflammatory response and mortality following high-dose lipopolysaccharide,[2],inhibit
AQGVLPG (Immunomodulatory peptide) [SEQ ID NO:7],"TNF-α, IL-6 and E-selectin mRNA transcript levels in the liver",[5],reduced
same,liver damage,[5],reduced
same,neutrophil infiltration into the liver,[5],reduced
same,systemic release of TNF-α and IL-6,[5],prevents
same,beta-cell failure with diabetes development (occurrence of diabetes after the age of 17 weeks),[7],significantly reduces
NC(=O)CC[C@H](N)C(=O)O [L-Glutamine],degree of microscopic injury induced by dextran sulfate sodium (DSS),[9],attenuated
same,activity as activators of mTOR or inhibitors of autophagy compared with other amino acids,[10]; alone or in combination,more potent
same,mTOR associated autophagic inhibitory effects on human cells,[10]; human cells,most prominent
LQGVAPG (Immunomodulatory peptide) [SEQ ID NO:6],"TNF-α, IL-6 and E-selectin mRNA transcript levels in the liver",[5],reduced
same,liver damage,[5],reduced
same,neutrophil infiltration into the liver,[5],reduced
same,systemic release of TNF-α and IL-6,[5],prevents
same,beta-cell failure with diabetes development (occurrence of diabetes after the age of 17 weeks),[7],significantly reduces
